Publication PMC12349723, “Computationally accelerated identification of P-glycoprotein inhibitors” (PLOS One, 2025)
Values joined by “and” are separate entries in the source; they are usually repeats but may differ in a detail not shown here. Identical values can stand only once.

Legend:
[1] = Resazurin cell viability pre-screen in DU145-TXR cells with or without PTX; type: cell-based; conditions: human, mean of two experiments in triplicate, read-out: Viability, 15 µM compound alone
Experimental: Culture of the DU145, DU145-TXR, and HFL1 cell lines was performed as described in [8]. Culture of the A2780 and A2780-ADR cell lines was performed as described in [9]. MTT assays were performed as described in [8] with minor modifications. LC-MS/MS accumulation assays were performed as described in {Nanayakkara, 2018 #173} [9] with some modifications. […] The inhibitor concentration was lowered to 15 µM here, as the goal of the study was to identify compounds that were effective in reversing MDR at low concentrations, and to determine if the expanded virtual-assisted methods improved on our first-draft attempt. Compounds 56–98 were pre-screened using Resazurin cell viability assays: cells were incubated with 15 µM compound with or without 500 nM PTX for 48 hours, after which cell survival was assessed similar to [39]. Data represent the mean of two separate experiments, with n = 3 samples per experiment (n = 6 total) (S4 Table). The top performing compounds from this initial screen were re-tested with MTT viability assays against DU145-TXR cells, as described below.
S4 Table. Pre-screening of compounds 56 – 98 against DU145-TXR cells with resazurin assays. DU145-TXR cells were incubated with 15 µM compound with or without 500nM PTX for 48 hrs; survival was subsequently determined with the Resazurin viability assay ^[37]. […] Percent re-sensitization is defined as the percent change in viability between cells treated with compound and PTX, versus cells treated with PTX alone. In some instances, the assay reported an increase in viability with compound + PTX, and no percent sensitization is reported. ‘Follow-up Testing’ compounds were re-assessed with MTT assays (Figure 1). Compounds 59 and 89 (*, ‘Follow-up Testing’) were used as negative controls in follow-up MTT assays to test for consistency of results, e.g. to confirm that molecules eliminated in Resazurin assays were justifiably eliminated from later screening with MTT assays.

DU145 cells = assay: MTT viability assay, non-P-gp overexpressing DU145 parental line, with or without PTX; type: cell-based, human; conditions: for % Survival, Mean, 15 µM compound + 500 nM PTX / viability at 15 µM: mean of 8 samples; for viability at 15 µM: Homo sapiens, DU-145, 48 h, read-out: % Survival, Mean, 15 µM Compound alone
Experimental: (§1) The chemotherapeutic sensitive DU145 human prostate cancer cells and the multidrug resistant sub-line, DU145-TXR, were generous gifts from Dr. Evan Keller (University of Michigan, Ann Arbor, MI). The MDR, P-gp overexpressing DU145-TXR cells were maintained under positive selection pressure by supplementing complete medium with 10 nM paclitaxel (Acros Organics, NJ). […] The MDR, P-gp overexpressing A2780-ADR cell line was maintained under positive selection pressure by supplementing complete medium with 100 nM doxorubicin (Fisher Scientific, NJ). The non-cancerous HFL1 (human lung fibroblast) cell line cell line was a generous gift from Dr. Robert Harrod (Southern Methodist University, Dallas, TX) and was maintained in complete F12K media consisting of F12K with 10% fetal bovine serum, 100 U/mL penicillin, and 100 µg/mL streptomycin (Gibco). Flasks and 96 well plates that were used with the non-cancerous line HFL1 were pre-treated with 0.1 mg/ml Collagen Type 1 (Gibco) and rinsed with PBS (Fisher).
Culture of the DU145, DU145-TXR, and HFL1 cell lines was performed as described in [8]. Culture of the A2780 and A2780-ADR cell lines was performed as described in [9]. MTT assays were performed as described in [8] with minor modifications. […] Data represent the mean of two separate experiments, with n = 3 samples per experiment (n = 6 total) (S4 Table).
(§2) MTT assays measure the reduction of yellow, water soluble 3-(4,5-dimethylthiazol-2-yl)-2,5-diphenyltetrazolium bromide (MTT) to blue, insoluble formazan crystals by cellular reductase processes in living cells. Cells were trypsinized from monolayers and seeded in complete medium in 96 well plates. Cancerous cell lines (DU145, DU145-TXR, A2780, A2780-ADR) were seeded at 3,000 cells per well in complete RPMI medium. The non-cancerous HFL1 line was seeded at 4,000 cells per well in complete F12K medium, in collagen-treated plates (Collagen Type 1, Gibco). Cells were incubated with experimental compounds for 48 hours at 37 °C and 5% CO2 in a humidified incubator. At 48 hours, MTT was added (20 µL/well of 5 mg/mL MTT in PBS) to each well. After incubation for 4 hours, the media was removed, and the formazan crystals were dissolved in 100 µL DMSO per well. Plates containing the semi-adherent A2780 or A2780-ADR lines were spun at 1400 rpm for 3 minutes prior to aspiration of media, and the addition of DMSO. Plates were shaken for 10 minutes at 500 rpm on an Orbital shaker (LabDoctor from MidSci, St Louis, MO). The absorbance was measured at 570 nm using a Bio-Tek Cytation 5 (Bio-Tek, Winooski, VT). The measured absorbance value was correlated with the number of metabolically active cells in that well, corrected for absorbance of media. The percent of cell viability (termed ‘survival’ here) was calculated as a percentage of survival of the control condition, which refers to vehicle-treated (DMSO as vehicle) cells, or vehicle-and-chemotherapeutic-treated cells, if testing a compound’s ability to re-sensitize cells to a chemotherapeutic. Percent survival was calculated using the following equation:
(§3) % Survival=100 × absorbance of experimental cells/mean absorbance of control treated cells
(§4) For DU145-TXR, DU145, HFL1 and A2780 cells – data are the mean ± one standard deviation, 8 samples per compound, from at least two independent trials per compound. […] For A2780-ADR cells, data are the mean ± one standard deviation with 12 samples per compound, from at least two independent trials per compound.
67 compounds were chosen from computational screens for testing in vitro. A) DU145-TXR cells were exposed to 15 µM experimental compound with or without 500 nM of the P-gp substrate and chemotherapeutic paclitaxel (PTX).

[2] = test system: HFL1 (human lung fibroblast) cell line; assay: MTT viability assay, inherent toxicity in non-cancerous HFL1 cells; type: cell-based; design: Mean % Survival: tested at 15 µM
Experimental: as §1, §2, §3, §4
If a P-gp inhibitor is intrinsically toxic to non-cancerous cells, it is more likely to be participating in undesirable off-target interactions. The top compounds from the screens shown above were screened for inherent toxicity using the non-cancerous HFL1 (human lung fibroblast) cell line. HFL1 cells were incubated with 15 µM compound for 48 hours, after which cell viability was assessed using MTT cell viability assays. A 20% reduction in cell viability (compared to DMSO-treated cells) was considered the maximum acceptable toxicity (see dotted line). The chemotherapeutic daunorubicin was included as a positive control for toxicity.
The top compounds from previous screens were tested against the non-cancerous HFL1 cell line.

[3] = DU145 cells, 48 h, single samples, 2 trials x 4 samples

`Cn1cnnc1SCc1c(C(=O)O)nnn1-c1nonc1N` [Compound 59, Cn1cnnc1SCc1c(nnn1-c1nonc1N)C(O)=O] gave a viability at 48 h, 15 µM [1] of 101%.

Work on `Nc1nonc1-n1nnc(C(=O)N/N=C/c2c3ccccc3cc3ccccc23)c1COc1ccc(F)cc1` [Compound 60, Nc1nonc1-n1nnc(C(=O)N\N=C\c2c3ccccc3cc3ccccc23)c1COc1ccc(F)cc1] yielded a viability at 48 h, 15 µM [1] of 88%.

With `CCN1CCN(Cc2c(C(=O)N/N=C3/C(=O)N(C)c4ccccc43)nnn2-c2nonc2N)CC1` [Compound 61, CCN1CCN(Cc2c(nnn2-c2nonc2N)C(=O)N\N=C2\C(=O)N(C)c3ccccc23)CC1] the viability at 48 h, 15 µM [1] was 98.8%, the “% Survival, Mean, 15 µM compound + 500 nM PTX” value (DU145 cells; DU145 cells, 48 h) was 14.3% and the viability at 15 µM (DU145 cells; DU145 cells, 48 h) was 55.6%.

`O=C(c1cc2ccccc2[nH]1)N1CCN(S(=O)(=O)c2cccc3nonc23)CC1` [Compound 66, O=C(N1CCN(CC1)S(=O)(=O)c1cccc2nonc12)c1cc2ccccc2[nH]1] showed a viability at 48 h, 15 µM [1] of 98.3%.

For `O=C(c1nc(-c2ccc3cc[nH]c3c2)no1)N1CCN(c2nsc3ccccc23)CC1` [Compound 70, O=C(N1CCN(CC1)c1nsc2ccccc12)c1nc(no1)-c1ccc2cc[nH]c2c1], the “Inherent toxicity to non-cancerous HFL1 cells” value ([2]; 15 µM compound, 48 h, MTT, 20% reduction in viability = maximum acceptable toxicity) was “either ‘non-toxic’ or ‘within acceptable limits’ of toxicity”, the “Mean % Survival” value ([2]; HFL1 cells, compound alone, mean of 8 samples) was 81.4% and the “% Survival (individual sample)” value ([2]; HFL1 cells, compound alone, single samples (trials 1-2, samples 1-4)) was 81% and 85%. The viability at 48 h, 15 µM [1] was 99.2%, the “Sensitization of DU145 cells to PTX” value (DU145 cells; 15 µM compound + PTX vs PTX alone) was “insignificantly sensitize DU145 cells to PTX” and the “% Survival, Mean, 15 µM compound + 500 nM PTX” value (DU145 cells; DU145 cells, 48 h) was 30.5%. The “% Survival, 15 µM Compound alone (individual samples)” value (DU145 cells; [3]) was 88%, the “% Survival, 15 µM compound + 500 nM PTX (individual samples)” value (DU145 cells; [3]) was 32% and 30% and the viability at 15 µM (DU145 cells; DU145 cells, 48 h) was 84.7%.

`COc1ccc(OC)c(NC(=O)c2nnn(-c3ccc4noc(-c5ccccc5)c4c3)c2C)c1` [Compound 71, COc1ccc(OC)c(NC(=O)c2nnn(c2C)-c2ccc3noc(-c4ccccc4)c3c2)c1] gave a viability at 48 h, 15 µM [1] of 93%.

Work on `NS(=O)(=O)c1cccc(NC(=O)CSc2nnnn2C2CC2)c1` [Compound 89, NS(=O)(=O)c1cccc(NC(=O)CSc2nnnn2C2CC2)c1] yielded a viability at 48 h, 15 µM [1] of 93.7%.
